Experimental data: patent US4070469A, “Compound for the treatment of bovine mastitis” (priority 1975, dated 1978)
Values after ≈ are worked out from the molar mass of the structure shown. Like-named read-outs stand apart in the source and are kept apart here.

Tests used:
Staph.Aureus = assay: Minimal bactericidal activity (MBC) in milk, field isolates; format: cell-based; conditions: for MBC: Staphylococcus aureus
From the text: (§1) The activity of some of said nitrofuryl quinolines derivatives against Strep.uberis and Stap.Aureus in milk has been compared with the activity of some of the compounds so far utilised in the treatment of bovine mastitis. The results are shown in Table I. (The nitrofuryl quinoline derivatives have general formula [drawing 1] the meaning of R, A, R', B, Y, X and Z being given in the Table. R1 =O whenever indicated then the N-oxide is concerned; NF stands for nitrofuryl)
(§2) Minimal Bactericidal/Activity (MBC) of representative Nitrofuryl
(§3) in mcg/ml in milk at pH 7.2 - 7.4. Versus Standards (Field

Strep.uberis = assay: as above; format: cell-based; conditions: for MBC: Streptococcus uberis
From the text: as §1, §2, §3

[1] = in milk at pH 7.2 - 7.4, field isolate 2337, read-out: Minimal Bactericidal Activity (MBC), Staph.Aureus 2337
[2] = in milk at pH 7.2 - 7.4, field isolate 2372, read-out: Minimal Bactericidal Activity (MBC), Staph.Aureus 2372
[3] = in milk at pH 7.2 - 7.4, field isolate 60B, read-out: Minimal Bactericidal Activity (MBC), Strep.uberis 60B
[4] = in milk at pH 7.2 - 7.4, field isolate 127A, read-out: Minimal Bactericidal Activity (MBC), Strep.uberis 127A
[5] = in milk at pH 7.2 - 7.4, field isolate 2337
[6] = in milk at pH 7.2 - 7.4, field isolate 2372
[7] = in milk at pH 7.2 - 7.4, field isolate 60B
[8] = in milk at pH 7.2 - 7.4, field isolate 127A

| Compound | MBC (Staph.Aureus; [1]) | MBC (Staph.Aureus; [2]) | MBC (Strep.uberis; [3]) | MBC (Strep.uberis; [4]) | other results |
| --- | --- | --- | --- | --- | --- |
| CCc1ccc2nc(CC)cc(-c3ccc([N+](=O)[O-])o3)c2c1 [Compound 31] | > 10 µg/mL | > 10 µg/mL | > 10 µg/mL | > 10 µg/mL |  |
| CCc1cc(-c2ccc([N+](=O)[O-])o2)c2ccc(OC)cc2[n+]1[O-] [Compound 24] | > 10 µg/mL | 10 µg/mL (≈ 31.8 µM) | > 10 µg/mL | > 10 µg/mL |  |
| CCOc1ccc2c(-c3ccc([N+](=O)[O-])o3)cc(C=NO)nc2c1 [Compound 38] | 10 µg/mL (≈ 30.6 µM) | 5 µg/mL (≈ 15.3 µM) | 5 µg/mL (≈ 15.3 µM) | 10 µg/mL (≈ 30.6 µM) |  |
| O=[N+]([O-])c1ccc(-c2ccnc3ccccc23)o1 [Compound 11] | > 10 µg/mL | > 10 µg/mL | 10 µg/mL (≈ 41.6 µM) | > 10 µg/mL |  |
| COc1cc2c(-c3ccc([N+](=O)[O-])o3)cc(C)[n+]([O-])c2cc1OC [Compound 39] | 10 µg/mL (≈ 30.3 µM) | 0.5 µg/mL (≈ 1.51 µM) | 0.25 µg/mL (≈ 0.757 µM) | 1 µg/mL (≈ 3.03 µM) |  |
| CC1(C)S[C@@H]2[C@H](NC(=O)Cc3ccccc3)C(=O)N2[C@H]1C(=O)O [Penicillin G, reference compound] | > 50 µg/mL | > 50 µg/mL | 0.06 µg/mL (≈ 0.179 µM) | 1.56 µg/mL (≈ 4.67 µM) |  |
| CCc1ccc2c(c1)c(-c1ccc([N+](=O)[O-])o1)cc(CC)[n+]2[O-] [Compound 32] | > 10 µg/mL | > 10 µg/mL | 1 µg/mL (≈ 3.2 µM) | > 10 µg/mL |  |
| CCCOc1ccc2c(-c3ccc([N+](=O)[O-])o3)cc(C)[n+]([O-])c2c1 [Compound 42] | 10 µg/mL (≈ 30.5 µM) | 5 µg/mL (≈ 15.2 µM) | 5 µg/mL (≈ 15.2 µM) | 5 µg/mL (≈ 15.2 µM) |  |
| O=C(N[C@H](CO)[C@H](O)c1ccc([N+](=O)[O-])cc1)C(Cl)Cl [Chloramphenicol, reference compound] | > 50 µg/mL | > 50 µg/mL | 50 µg/mL (≈ 155 µM) | > 400 µg/mL |  |
| CC(=O)OCc1cc(-c2ccc([N+](=O)[O-])o2)c2ccccc2n1 [Compound 33] | > 10 µg/mL | > 10 µg/mL | > 10 µg/mL | > 10 µg/mL |  |
| CCc1cccc2c(-c3ccc([N+](=O)[O-])o3)cc(C)nc12 [Compound 10] | > 10 µg/mL | > 10 µg/mL | > 10 µg/mL | > 10 µg/mL |  |
| CN(C)[C@@H]1C(=O)C(C(N)=O)=C(O)[C@@]2(O)C(=O)C3=C(O)c4c(O)cccc4[C@@](C)(O)[C@H]3[C@H](O)[C@@H]12 [Oxytetracyclin, reference compound] |  |  |  |  | MBC (Staph.Aureus; read-out: Minimal Bactericidal Activity (MBC), Staph.Aureus 2337): 25 µg/mL (≈ 54.3 µM); MBC (Staph.Aureus; read-out: Minimal Bactericidal Activity (MBC), Staph.Aureus 2372): 50 µg/mL (≈ 109 µM); MBC (Strep.uberis; read-out: Minimal Bactericidal Activity (MBC), Strep.uberis 60B): 0.78 µg/mL (≈ 1.69 µM); MBC (Strep.uberis; read-out: Minimal Bactericidal Activity (MBC), Strep.uberis 127A): > 50 µg/mL |
| CC(=O)Oc1ccc2c(-c3ccc([N+](=O)[O-])o3)cc(C)nc2c1 [Compound 8] | 5 µg/mL (≈ 16 µM) | 5 µg/mL (≈ 16 µM) | 0.25 µg/mL (≈ 0.801 µM) | 10 µg/mL (≈ 32 µM) |  |
| CC[C@H]1OC(=O)[C@H](C)[C@@H](O[C@H]2C[C@@](C)(OC)[C@@H](O)[C@H](C)O2)[C@H](C)[C@@H](O[C@@H]2O[C@H](C)C[C@H](N(C)C)[C@H]2O)[C@](C)(O)C[C@@H](C)C(=O)[C@H](C)[C@@H](O)[C@]1(C)O [Erythremycin, reference compound] | 0.78 µg/mL (≈ 1.06 µM) | 6.25 µg/mL (≈ 8.52 µM) | 0.39 µg/mL (≈ 0.531 µM) | 3.12 µg/mL (≈ 4.25 µM) |  |
| CCc1ccc2c(c1)c(-c1ccc([N+](=O)[O-])o1)cc(C)[n+]2[O-] [Compound 20] | 5 µg/mL (≈ 16.8 µM) | 5 µg/mL (≈ 16.8 µM) | > 10 µg/mL | > 10 µg/mL |  |
| O=[N+]([O-])c1ccc(-c2cc[n+]([O-])c3ccccc23)o1 [Compound 41] | 10 µg/mL (≈ 39 µM) | 5 µg/mL (≈ 19.5 µM) | 5 µg/mL (≈ 19.5 µM) | 10 µg/mL (≈ 39 µM) |  |
| Cc1cc(-c2ccc([N+](=O)[O-])o2)c2ccc(N)c(C)c2n1 [Compound 35] | 5 µg/mL (≈ 17.6 µM) | 5 µg/mL (≈ 17.6 µM) | 5 µg/mL (≈ 17.6 µM) | 10 µg/mL (≈ 35.3 µM) |  |
| Spiramycin [reference compound] |  |  |  |  | Minimal Bactericidal Activity (MBC), Staph.Aureus 2337 (Staph.Aureus; [5]): 25 µg/mL; Minimal Bactericidal Activity (MBC), Staph.Aureus 2372 (Staph.Aureus; [6]): 25 µg/mL; Minimal Bactericidal Activity (MBC), Strep.uberis 60B (Strep.uberis; [7]): 1.56 µg/mL; Minimal Bactericidal Activity (MBC), Strep.uberis 127A (Strep.uberis; [8]): 12.5 µg/mL |
| Necmycin [reference compound] |  |  |  |  | Minimal Bactericidal Activity (MBC), Staph.Aureus 2337 (Staph.Aureus; [5]): 12.5 µg/mL; Minimal Bactericidal Activity (MBC), Staph.Aureus 2372 (Staph.Aureus; [6]): 12.5 µg/mL; Minimal Bactericidal Activity (MBC), Strep.uberis 60B (Strep.uberis; [7]): 200 µg/mL; Minimal Bactericidal Activity (MBC), Strep.uberis 127A (Strep.uberis; [8]): 200 µg/mL |
| O=C(O)c1cc(-c2ccc([N+](=O)[O-])o2)c2ccccc2n1 [Compound 2, 4-(5-nitrofuryl)-quinaldinic acid] | 1 µg/mL (≈ 3.52 µM) | 0.5 µg/mL (≈ 1.76 µM) | 0.12 µg/mL (≈ 0.422 µM) | 1 µg/mL (≈ 3.52 µM) |  |
| O=C1OC(CN2CCOCC2)CN1/N=C/c1ccc([N+](=O)[O-])o1 (stereo not drawn) [Furaltadone, reference compound] | 10 µg/mL (≈ 30.8 µM) | 10 µg/mL (≈ 30.8 µM) | 1 µg/mL (≈ 3.08 µM) | > 10 µg/mL |  |
